Series [1] relates to androgen binding site of ZIP9. Briefly: T-BSA-FITC plasma membrane labeling of PASC1 cells and its displacement. Conditions: PASC1 cells, n = 28.
Experimental: PASC1 cells were cultured as described above in 24-well plates at a density of 3 × 10^3 cells/well until reaching a confluence of approximately 80%. The cells were then treated with either 10 nM testosterone or 1 µM of P1 for 1 h. Controls received only the testosterone vehicle (ethanol). […] The medium was then removed by aspiration. In order to label nuclei, cells were fixed at room temperature with 3.7% formaldehyde that contained 20 ng of 4,6-diamino-2-phenylindole (DAPI). After 15 min, the formaldehyde/DAPI solution was removed by aspiration. Cells were washed with Dulbecco’s phosphate-buffered saline (DPBS, Gibco, Schwerte, Germany) and then overlayed with 400 µL PBS before imaging. Images were taken by an inverse Olympus IX81 microscope (Olympus, Hamburg, Germany).
The subject of a further series is AR-specific mRNA. Briefly: AR mRNA silencing in PASC1 cells, qRT-PCR. Type of series: cell-based, rat. Conditions: 48 h siRNA. As for the experimental part: (§1) Primers were designed with http://www.ncbi.nlm.nih.gov/tools/primer-blast (Accessed on 28 February 2022) and were all intron-spanning. Total RNA was isolated from PASC1 with the RNeasy Mini-Kit (Qiagen, Hilden, Germany) and subjected to DNase I treatment as described by the manufacturer. The Reverse Transcription-System first strand cDNA synthesis kit (Invitrogen, Darmstadt, Germany) was used for cDNA synthesis, as recommended. Quantitative real-time PCR (qRT-PCR) amplification was performed in duplicate with iQ TM SYBR Green Super-mix (Bio-Rad; Munich; Germany) on the iCycler iQ System (Bio-Rad). After an initial heating at 94 °C for 5 min, 40 amplification cycles were performed consisting of an initial denaturation of the DNA double strands at 94 °C for 14 s, an annealing phase of the primers at 59 °C for 30 s, and extension of the primers for 15 s at 72 °C. A finalizing extension at 72 °C was carried out for 10 min. Gene expression was measured after reaching the ct value and calculated using the Delta–Delta Ct method. Detection of GAPDH-specific mRNA/cDNA served as normalization of the quantification. Oligonucleotides used in the qRT-PCR, their annealing position, and the expected size of the amplificates are listed in Supplementary Table S2. […]

The test system of a further series is AR protein. Briefly: AR protein silencing in PASC1 cells, immunofluorescence. The series is classed as cell-based, rat. To be noted: 48 h siRNA. As for the experimental part:
PASC1 cells were plated at a density of 3.0 × 10^4 on 24-well plates (1 mL/well) and incubated 48 h at 37 °C and 5% CO2 until a confluence of roughly 80% was reached. Cells were rinsed with DPBS and fixed with 100% ice-cold methanol (Roth, Karlsruhe, Germany) on ice for 10 min directly or after stimulation with vehicle, 10 nM testosterone, or 1 µM P1 for 24 h. Cells were then washed with DPBS three times for 5 min, and then incubated in blocking solution (PBS with 3% BSA and 0.3% Triton X-100, both from Sigma-Aldrich) for 1 h at room temperature. The blocking solution was replaced by fresh blocking solution containing the primary antibodies for detection of either AR, p-Erk1/2, p-CREB/p-ATF-1, claudin-1 (Cldn-1), or zonula occludens-1 (ZO-1) (Supplementary Table S1) and incubated overnight at 4 °C. […] After washing 3 times with DPBS, images were obtained using an inverse Olympus IX81 microscope equipped with a fluorescence system. A total of 30 cells from 3 independent experiments (30 × 3) localized closest to the diagonals of the square optical field were selected and the manually surrounded green fluorescence was quantified by ImageJ (available at http://rsbweb.nih.gov/ij/, last accessed 28 February 2022) following the protocol of the software provider. The data obtained were analyzed by GraphPad Prism5 (GraphPad Software, Inc., La Jolla, CA, USA). […]

In series [2] the test system is androgen binding site ZIP9 of the Sertoli cell line 93RS2. Also on record: method as in PMID 35053053, PMID 35053017. To be noted: 93RS2 cells; cited from earlier work.
For series [3], the system named is androgen binding site ZIP9 of L6 myoblasts. To be noted: cited from earlier work.
A further series has as its system ZIP9-specific mRNA. Briefly: ZIP9 mRNA silencing in PASC1 cells, qRT-PCR. Type of series: cell-based, rat. To be noted: 48 h siRNA. As for the experimental part:
as §1

For the next series, the system named is ZIP9 protein. Briefly: ZIP9 protein silencing in PASC1 cells, immunofluorescence. The series is classed as cell-based, rat. Conditions: 48 h siRNA.

Turning to “BSA-FITC: BSA-FITC (lacking testosterone)”, the “Membrane labeling by BSA-FITC (non-specific binding)” value in series [1] (10 µM BSA-FITC, pH 7.2, 20 min, room temperature) was “failed to label the membrane structure”.

As to “AR-siRNA: 5′CCGGAAAUGUUAUGAAGCAtt3′ plus 5′ UGCUUCAUAACAUUUCCGGag 3′ (AR-siRNA for AR silencing) (chain 1 CCGGAAAUGUUAUGAAGCATT; chain 2 UGCUUCAUAACAUUUCCGGAG; Commercial Silencer Select siRNA, lowercase 3' overhang letters not explained, further chemistry not given here)”, the “Expression of AR-specific mRNA” value in the series with AR-specific mRNA is reported as “greatly suppressed”. In the series with AR protein, the “Expression of AR protein” value is recorded as “also prevented”.

Take “testosterone 3-(O-carboxymethyl)-oxime:bovine serum albumin-fluorescein isothiocyanate conjugate [T-BSA-FITC]”: the “Labeling of androgen binding site of ZIP9” value in series [2] was “suitable to label the androgen binding site ZIP9 of the Sertoli cell line 93RS2”; in series [3], “suitable to label the androgen binding site ZIP9 of the Sertoli cell line 93RS2 and also of L6 myoblasts”. For the same substance, in series [1] (10 µM T-BSA-FITC, pH 7.2, 20 min, room temperature, nc-siRNA treated, fluorescence), the Membrane labeling entry is “label the surface of PASC1 cells”. In series [1] (ZIP9 expression suppressed by siRNA, 10 µM T-BSA-FITC), the “Membrane labeling after ZIP9 knockdown” value is given as “suppression of its expression by siRNA prevented the binding of T-BSA-FITC”.

Consider “ZIP9-directed siRNA: 5′ GGAUUAAGUAAGAGCAGUAtt3′ and 5′ UACUGCUCUUACUUAAUCCta 3′ (ZIP9-siRNA for ZIP9 silencing) (chain 1 GGAUUAAGUAAGAGCAGUATT; chain 2 UACUGCUCUUACUUAAUCCTA; Commercial Silencer Select siRNA, lowercase 3' overhang letters not explained, further chemistry not given here)”, for which the “Expression of ZIP9 mRNA” value in the series on ZIP9-specific mRNA is “similarly successful in preventing expression”. Besides, the “Expression of ZIP9 protein” value in the series with ZIP9 protein is recorded as “similarly successful in preventing expression”.

These data come from article PMC9138102, “The Role of ZIP9 and Androgen Receptor in the Establishment of Tight Junctions between Adult Rat Sertoli Cells” (Biology, 2022).
